The nature of series [1]: High-temperature test (60° C.), stability study.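 As to all read-outs here: samples kept uncovered in dishes at 60 °C for up to 10 days and examined on Day 5 and Day 10.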 Format: physicochemical. The settings on record: open-stored; for Appearance Day 5: Day 5, cell wraps; for Appearance Day 5 / Appearance Day 10: first line given; for Appearance Day 10: Day 10, cell wraps.
Method: (§1) The test samples were open-stored in culture dishes at 60° C. for 10 days, and taken and detected on Day 5 and Day 10. • The characteristics, especially colour change were observed. • Melting points were measured by automatic melting point apparatus. • By self-reflection, TLC is used to observe whether the spot numbers were increased after 5 days and 10 days.
A short description of series [2]: High humidity test (25° C., relative humidity 90% ± 5%), stability study.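 As to all read-outs here: samples kept uncovered in sealed humidity desiccators, appearance judged mainly by colour change, melting point on an automatic apparatus, TLC checked for extra spots versus start.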 The settings on record: RH 90% ± 5%; for Appearance Day 0: Day 0, cell wraps; for Appearance Day 0 / Appearance Day 5 / Appearance Day 10: first line given; for Appearance Day 5: Day 5, cell wraps; for Appearance Day 10: Day 10, cell wraps. The format is physicochemical.
Method: (§2) The test samples were open-stored in closed constant humidity desiccators under the condition of 25° C. and relative humidity of 90%+5% for 10 days, and taken and detected on Day 5 and Day 10. Meanwhile, each sample was accurately weighed before and after test.
The characteristics, especially colour change was observed.
Melting points were measured by an automatic melting point apparatus.
By self-reflection, TLC is used to observe whether the spot numbers were increased after 5 days and 10 days.
Series [3] is described as follows: Intense light irradiation test (4500LX ± 500LX), stability study. Format: physicochemical. The following applies: for Appearance Day 0: Day 0, cell wraps; for Appearance Day 0 / Appearance Day 5 / Appearance Day 10: first line given; for Appearance Day 5: Day 5, cell wraps; for Appearance Day 10: Day 10, cell wraps.
Method: (§3) The test samples were open-stored in “adjustable light boxes” under the conditions of illumination of 4500LX±500LX for 10 days, and taken and detected on Day 5 and Day 10 with regards to dry items. • The characteristics, especially colour change was observed. • Melting points were measured by an automatic melting point apparatus. • By self-reflection, TLC is used to observe whether the spot numbers were increased after 5 days and 10 days.
For series [4], the system named is ethanol-induced gastric ulcer. Nature of the series: Anhydrous ethanol-induced gastric ulcer in mice. The format is in vivo, Kunming mice. The following applies: for Inhibition rate (%): inhibition rate of ulcer vs model group; for anti-gastric ulcer effect in words: ethanol-induced gastric ulcer in mice, compared to the model group. Further details: key to Gastri ulcer score (X ± SD) / Ulcer score (X ± SD) / Gastric ulcer score (X ± SD): summed pathology score: congestion 1, hemorrhage/erosion 1, linear erosion 3. As for the experimental part: Kunming mice, half male and half female, weighing 18-22 g, provided by the West China Animal Center
(1) Azulene sodium sulphonate was added with 0.5% CMC to prepare a suspension with concentration of 0.15 mg/ml.
(2) 20 mg of Omeprazole was added with 0.5% CMC to prepare a suspension with concentration of 0.67 mg/ml.
Kunming mice were randomly grouped according the body weight (one model control group or negative control group, one Omeprazole control group or positive control group, one Azulene sodium sulphonate control group, twelve test drug groups), eight mice for each group, half male and half female.
Administration: Model control group was administrated intragastrically with 0.5% CMC solution at a dose of 0.4 ml/20 g; Omeprazole control group was administrated intragastrically with Omeprazole at a dose of 0.4 ml/20 g, Azulene sodium sulphonate control group and each test drug groups were administrated intragastrically with their respective drug at a dose of 0.4 ml/20 g. The mice in each group were administrated once a day for successive five days. 0.5 hour after final administration, the mice in each group were administrated intragastrically with 0.5 ml of anhydrous ethanol, one hour later the mice were executed and dissected, and their stomaches were taken, washed and scored according to the pathological degree. For local congestion and rubefaction, score was 1; for petechial hemorrhage or erosion, score was respectively 1, for each linear erosion, score was 3. Statistical analysis was performed. Ulcer scores were calculated, significant differences between the groups were compared and the inhibition rates of ulcer were calculated [Inhibition rate of ulcer=(ulcer score of model group−ulcer score of drug administration group)/ulcer score of model group].

The nature of series [5]: Stability studies (light, humidity, heat), overall comparison. The following applies: summary of high-temperature, high humidity and intense light tests.
Method: as §1, §2, §3
Series [6] is described as follows: Stability of the purified compound in the air. Format: physicochemical.
Setting [7] is: Table 5 data, relative increase.

Entries after “also recorded” stand apart in the source; their conditions may differ.

Data on three compounds can be found in patent US9376382B2, “N-substituted isopropyldimethyl azulene sulfonamide derivatives, and preparation method and use thereof” (Sichuan Guokang Pharmaceutical Co., Ltd., priority 2011, dated 2016).

The term melting point denotes the temperature of the solid-liquid transition.

Turning to `Cc1cc(S(=O)(=O)NC2CCCCC2)c2c(C)ccc(C(C)C)cc1-2` [4i, N-cyclohexyl-3,8-dimethyl-5-isopropyl-1-azulene sulfonamide], the melting point lay in the range of 108 to 109 °C. Moreover, in series [1], the “Melting point Day 0” value was 107.5-108.5 °C, the “Spot numbers on TLC Day 0” value was 1, the “Melting point Day 5” value is 107.0-108.5 °C and the “Spot numbers on TLC Day 5” value came to 1. In series [1], the “Appearance Day 5” value is “purple”, the “Melting point Day 10” value was 107.0-108.5 °C, the “Spot numbers on TLC Day 10” value came out at 1 and the “Appearance Day 10” value is given as “purple”. Further, in series [2], the “Melting point Day 0” value was 108.5-109.0 °C, the “Spot numbers on TLC Day 0” value was 1, the “hygroscopic rate (%) Day 0” value is on record as 1.89% and the “Appearance Day 0” value is “purple”. For the same compound, in series [2], the “Melting point Day 5” value was 108.5-109.5 °C, the “Spot numbers on TLC Day 5” value came out at 1, the “hygroscopic rate (%) Day 5” value was found to be 2.35% and the “Appearance Day 5” value was “purple”. In addition, in series [2], the “Melting point Day 10” value was 107.5-108.5 °C, the “Spot numbers on TLC Day 10” value was 1 and the “Appearance Day 10” value is “purple”. Besides, in series [3], the “Melting point Day 0” value was 107.5-108.5 °C, the “Spot numbers on TLC Day 0” value is listed as 1, the “Appearance Day 0” value is recorded as “purple” and the “Melting point Day 5” value was 107.5-108.5 °C. In addition, in series [3], the “Spot numbers on TLC Day 5” value is listed as 1, the “Appearance Day 5” value was “purple” and the “Appearance Day 10” value is “purple”. For the same compound, the “Spot numbers on TLC Day 10” value in series [3] (Day 10) amounted to 1. For the same compound, in series [4] (Table 4), the “Inhibition rate (%)” value stood at 50.92%. Besides, the “Gastri ulcer score (X ± SD)” value in series [4] (Table 4, mice, intragastric once a day for five days, dose equimolar to azulene sulfonate sodium 3.0 mg/kg (Omeprazole 13.4 mg/kg), model group 13.00 ± 1.77) was found to be 6.38 ± 3.85. For the same compound, the “anti-gastric ulcer effect in words” value in series [4] is on record as “significantly relieve the pathological degree”. Besides, the “light, humidity and heat stability in words” value in series [5] is “better light, humidity and heat stability than azulene sulfonate sodium”.

As to `Cc1cc(S(=O)(=O)Nc2ccc(N)cc2)c2c(C)ccc(C(C)C)cc1-2` [4l, N-(4-aminophenyl)-3,8-dimethyl-5-isopropyl-1-azulene sulfonamide], the melting point fell in the range of 88 to 90 °C. Moreover, in series [1], the “Melting point Day 0” value is 87.5-89.0 °C, the “Spot numbers on TLC Day 0” value was found to be 1, the “Melting point Day 5” value is 88.0-89.0 °C and the “Spot numbers on TLC Day 5” value is 1. In series [1], the “Appearance Day 5” value is recorded as “purple”, the “Melting point Day 10” value is 88.0-89.0 °C, the “Spot numbers on TLC Day 10” value turned out to be 1 and the “Appearance Day 10” value is “purple”. In series [2], the “Melting point Day 0” value is 87.5-89.0 °C, the “Spot numbers on TLC Day 0” value is reported as 1, the “hygroscopic rate (%) Day 0” value came to 1.09% and the “Appearance Day 0” value was “purple”. For the same compound, in series [2], the “Melting point Day 5” value is 87.5-89.5 °C, the “Spot numbers on TLC Day 5” value is listed as 1, the “hygroscopic rate (%) Day 5” value is 1.81% and the “Appearance Day 5” value was “purple”. For the same compound, in series [2], the “Melting point Day 10” value is 87.5-89.5 °C, the “Spot numbers on TLC Day 10” value is 1 and the “Appearance Day 10” value was “purple”. In series [3], the “Melting point Day 0” value is 87.5-89.0 °C, the “Spot numbers on TLC Day 0” value is 1, the “Appearance Day 0” value is given as “purple” and the “Melting point Day 5” value is 87.5-89.0 °C. Also, in series [3], the “Spot numbers on TLC Day 5” value came out at 1, the “Appearance Day 5” value is recorded as “purple” and the “Appearance Day 10” value is recorded as “purple”. For the same compound, in series [3] (Day 10), the “Melting point Day 10” value is 87.5-89.5 °C and the “Spot numbers on TLC Day 10” value came to 1. Moreover, the “Inhibition rate (%)” value in series [4] (Table 5) is reported as 45.20%. For the same compound, the “Ulcer score (X ± SD)” value in series [4] (Table 5, mice, intragastric once a day for five days, equimolar doses, model group 20.33 ± 12.23) came out at 11.14 ± 6.41. Further, in series [4] (setting [7]), the “increase of inhibition rate compared to Omeprazole” value was 23% and the “increase of inhibition rate compared to azulene sulfonate sodium” value was determined as 38%. Further, in series [4], the “anti-gastric ulcer effect in words” value is “significantly relieve the pathological degree; also recorded: better therapeutic effect on gastric ulcer than azulene sulfonate sodium and omeprazole”. Also, in series [5], the “light, humidity and heat stability in words” value was “better light, humidity and heat stability than azulene sulfonate sodium”.

In the case of `Cc1cc(S(=O)(=O)NN)c2c(C)ccc(C(C)C)cc1-2` [4m, N-amino-3,8-dimethyl-5-isopropyl-1-azulene sulfonamide], the “stability in the air” value in series [6] is “deteriorated soon in the air and had a very poor stability”.
